We go through 40 compounds from PubChem BioAssay AID743474 (The Scripps Research Institute Molecular Screening Center, 2014).

Activity calls are given as the source filed them. No rule for the calls is given here.

This test relates to CCHF vOTU. Kind of test: CCHF vOTU protease inhibitors, late-stage follow-up, biochemical, fluorescence, Ub-R110 substrate (AID 743474). The following applies: Recombinant CCHF vOTU, Ub-R110 fluorescence cleavage, hits give high values.

The term inhibition denotes the drop in the measured response relative to a control, in per cent. On to `CC1CCCC(NC(=O)COC(=O)c2ccc([N+](=O)[O-])s2)C1C` (stereo not drawn), for which, for the setting “Assay 1, Ub-R110 substrate, at 31.32 µM”, the inhibition is 14.7% (inactive).

In the case of `CC1COCC(C)N1C1=C(Cl)C(=O)c2ccccc2C1=O` (stereo not drawn), the inhibition (Assay 1, Ub-R110 substrate, at 14.67 µM) was 31.2%.

As for `O=C1Cc2ccccc2C(=O)N1Cc1ccccc1`, the inhibition (Assay 1, Ub-R110 substrate, at 1.31 µM) was 49.5%.

For `O=S(=O)(Nc1cc2nc3ccccc3nc2n1Cc1ccccc1)c1ccc(Cl)cc1`, the inhibition (Assay 1, Ub-R110 substrate, at 7.6 µM) is 5% (inactive).

For `CC(=O)c1ccc(NC(=S)Nc2cccc3cnccc23)cc1`, for the setting “Assay 1, Ub-R110 substrate, at 7.69 µM”, the inhibition is 4.4% (inactive).

For `Cc1c(Cl)cnc(NC(=O)COC(=O)c2ccc([N+](=O)[O-])s2)c1Cl`, the inhibition (Assay 1, Ub-R110 substrate, at 20.44 µM) is 40.7%.

Consider `NS(=O)(=O)c1ccc(NC2=CC(=O)C(=O)c3ccccc32)cc1`, for which the inhibition (Assay 1, Ub-R110 substrate, at 11.51 µM) was 21.1%.

`COc1cc(Br)c(C(=O)c2nccc3cc(OC)c(OC)cc23)cc1OC`: the inhibition (Assay 1, Ub-R110 substrate, at 1.13 µM) was 14.4% (inactive).

Regarding `Cn1nc(-c2ccccn2)nc2c(=O)n(C)c(=O)nc1-2`, the inhibition (Assay 1, Ub-R110 substrate, at 1.16 µM) was 97.3%.

On to `O=C1C=C(Nc2ccccc2)c2ccccc2C1=O`, for which the inhibition (Assay 1, Ub-R110 substrate, at 15.55 µM) was 21.8%.

For the compound `CC1(C)C=C2C(=NN(c3ccccc3)C(N)=C2C#N)CO1`, the inhibition (Assay 1, Ub-R110 substrate, at 23.49 µM) is 22.2%.

Consider `O=C(NC1=C(NC2CCS(=O)(=O)C2)C(=O)c2ccccc2C1=O)c1ccccc1` (stereo not drawn), for which the inhibition (Assay 1, Ub-R110 substrate, at 14.2 µM) is 49.8%.

As for `Cc1ccc(N2C(=O)[C@@H]3[C@H](C2=O)C2c4ccccc4C=CN2[C@@H]3C(=O)c2ccco2)cc1` (stereo partly drawn), the inhibition (Assay 1, Ub-R110 substrate, at 5.2 µM) was 33.9%.

Take `O=C1Cc2ccccc2C(=O)N1CCc1ccccc1`: the inhibition reads like this: (Assay 1, Ub-R110 substrate, at 1.51 µM) 3.44% (inactive); (Assay 2, Ub-R110 substrate, at 3.02 µM) 10.7% (inactive).

For the compound `O=c1[nH]c(Nc2ccccc2)cc2cc(Br)ccc12`, for the setting “Assay 1, Ub-R110 substrate, at 1.45 µM”, the inhibition was 19.9% (inactive).

For `O=C(O)CSc1cc(NS(=O)(=O)c2cccc([N+](=O)[O-])c2)c2ccccc2c1O`, the inhibition (Assay 1, Ub-R110 substrate, at 7.61 µM) was 0.5% (inactive).

On to `O=C(COC(=O)c1ccc([N+](=O)[O-])s1)Nc1ccc(F)cc1`, for which, where the note is “Assay 1, Ub-R110 substrate, at 26.34 µM”, the inhibition was 21.3%.

`O=C(/C=C/c1ccc(O)cc1)c1ccc(NC2=C(N3CCCCC3)C(=O)c3ccccc3C2=O)cc1`: where the note is “Assay 1, Ub-R110 substrate, at 10.17 µM”, the inhibition is 23.2%.

On to `COC1=C(N)C(=O)c2nc(C)ccc2C1=O`, for which the inhibition (Assay 1, Ub-R110 substrate, at 4.98 µM) was 16.6% (inactive).

`COc1ccc2noc3c2c1C(=O)c1ccccc1-3`: the inhibition (Assay 1, Ub-R110 substrate, at 6.28 µM) was 22.7%.

In the case of `CCOC(=O)N=Nc1c2ccccc2c2nc3no[nH]c3nc12`, under “Assay 1, Ub-R110 substrate, at 7.75 µM”, the inhibition is 33.2%.

For `Cc1ccccc1-c1cc2c(nn1)-c1ccccc1C2=O`, the inhibition (Assay 1, Ub-R110 substrate, at 2.23 µM) is 3.27% (inactive) and the inhibition (Assay 2, Ub-R110 substrate, at 4.46 µM) was 15.3% (inactive).

`O=C(c1ccco1)[C@@H]1[C@@H]2C(=O)N(c3ccc(Br)cc3)C(=O)[C@@H]2C2c3ccccc3C=CN21` (stereo partly drawn): the inhibition (Assay 1, Ub-R110 substrate, at 11.01 µM) was 16.9% (inactive).

Take `CN(C1=C(NC(=O)c2ccccc2)C(=O)c2ccccc2C1=O)C1CCS(=O)(=O)C1` (stereo not drawn): the inhibition is 4.36% (inactive) (Assay 1, Ub-R110 substrate, at 9.59 µM) and 55.5% (Assay 2, Ub-R110 substrate, at 19.18 µM).

As to `Cc1ccc2c(c1C)-c1c(ccc(C)c1C)C(=O)C2=O`, where the note is “Assay 1, Ub-R110 substrate, at 18.9 µM”, the inhibition was 62.5%.

With `CCc1cc[n+](C2=C(NS(=O)(=O)c3cccs3)C(=O)c3ccccc3C2=O)cc1`, the inhibition (Assay 1, Ub-R110 substrate, at 14.16 µM) is 64.3%.

Turning to `O=C1Cc2ccccc2C(=O)N1`, the inhibition (Assay 1, Ub-R110 substrate, at 0.6 µM) is 57.9%.

As to `O=C(COC(=O)c1ccc([N+](=O)[O-])s1)NCc1ccc(F)cc1`, for the setting “Assay 1, Ub-R110 substrate, at 40.58 µM”, the inhibition was 30.5%.

As to `COC(CNC(=O)c1ccc2c3c(onc13)-c1ccccc1C2=O)OC`, under “Assay 1, Ub-R110 substrate, at 24.19 µM”, the inhibition is 52.5%.

On to `O=C1OC(Nc2cc(Br)cc3cccnc23)c2ccccc21` (stereo not drawn), for which the inhibition (Assay 1, Ub-R110 substrate, at 5.44 µM) was 6% (inactive).

Regarding `NS(=O)(=O)c1ccc(NC(=O)COC(=O)c2ccc([N+](=O)[O-])s2)cc1`, under “Assay 1, Ub-R110 substrate, at 29.01 µM”, the inhibition was 13.3% (inactive).

For `O=C(OCc1nnc(-c2ccccc2)o1)c1ccc([N+](=O)[O-])s1`, the inhibition (Assay 1, Ub-R110 substrate, at 26.04 µM) was 20.8%.

Consider `O=C(NC1=CC(=O)c2ccccc2C1=O)c1ccccc1`, for which the inhibition (Assay 1, Ub-R110 substrate, at 12.37 µM) was 55.6%.

For the compound `Cc1ccc(NC2=CC(=O)C(=O)c3ccccc32)cc1`, the inhibition (Assay 1, Ub-R110 substrate, at 12.24 µM) was 22.1%.

Consider `CCn1nc(/C=C/c2ccccc2)nc2c(=O)n(C)c(=O)nc1-2`, for which the inhibition (Assay 1, Ub-R110 substrate, at 0.49 µM) is 98%.

In the case of `COc1cc(C(=O)c2nccc3cc(OC)c(OC)cc23)c([N+](=O)[O-])cc1OC`, the inhibition (Assay 1, Ub-R110 substrate, at 4.04 µM) is 0.3% (inactive).

In the case of `COc1cc(NC(=O)COC(=O)c2ccc([N+](=O)[O-])s2)cc(OC)c1OC`, the inhibition (Assay 1, Ub-R110 substrate, at 21.72 µM) was 15.2% (inactive).

Regarding `CCC(CNc1cc(OC)cc2cccnc12)NC1CCCCC1` (stereo not drawn), where the note is “Assay 1, Ub-R110 substrate, at 6.96 µM”, the inhibition was 3.8% (inactive).

For the compound `O=C(COC(=O)c1ccc([N+](=O)[O-])s1)Nc1ncc(C(F)(F)F)cc1Cl`, the inhibition (Assay 1, Ub-R110 substrate, concentration not given here) was 41.1%.

As for `COc1ccccc1NC(=O)COC(=O)c1ccc([N+](=O)[O-])s1`, the inhibition (Assay 1, Ub-R110 substrate, at 35.07 µM) was 26.7%.
